The source of these data is US20230190723A1 (MEREO BIOPHARMA 4 LIMITED, priority 2020, published 2023).

One test has as its target T1, NE (Homo sapiens, UniProt P08246).
T1 construct: purchased Athens Research and Technology, US
T1 sequence (P08246 30-267): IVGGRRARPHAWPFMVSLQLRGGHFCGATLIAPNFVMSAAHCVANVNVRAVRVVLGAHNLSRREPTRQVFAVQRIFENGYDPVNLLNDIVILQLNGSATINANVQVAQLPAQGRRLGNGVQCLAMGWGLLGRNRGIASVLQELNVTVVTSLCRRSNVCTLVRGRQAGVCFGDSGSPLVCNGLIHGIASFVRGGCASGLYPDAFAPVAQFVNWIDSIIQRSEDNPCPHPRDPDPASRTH
The test can be described thus: enzyme kinetics: SlaaapN cleavage by NE in the presence of inhibitor. The format is biochemical. On the procedure:
Results were determined computationally using Prism software.

A further test deals with T2, neutrophil elastase (Homo sapiens, UniProt P08246).
T2 construct: Neutrophils from healthy young volunteers were isolated; endogenous in cells; host or cells: neutrophils isolated from blood of healthy young volunteers, stimulated with fMLP in the presence of fibrinogen
T2 sequence (P08246 30-267): T1 sequence (P08246 30-267)
The test can be described thus: proteinase/anti-proteinase imbalance model (fMLP-stimulated isolated neutrophils with fibrinogen, NE activity footprint Aα-Val360). Conditions: for NE activity remaining, % of untreated (Aα-Val360): no inhibitor = 100%. The test is classed as cell-based.

In another test the test system is neutrophils. The test can be described thus: validation of the Aα-Val360 assay with stimulated neutrophils. The test is classed as cell-based, human. As to conditions: 15 minutes. On the procedure:
Baseline corrected Aα-Val^360 levels following stimulation of neutrophils at 2.5 million/ml with Cal at 2.4/2.1/1.8/1.5/1.2/0.9/0.6/0.3 μM with fibrinogen (550 nM) for 60 minutes; n=3.
Change in Aα-Val^360 levels following stimulation of neutrophils at 2.5 million/ml with fMLP at 0, 0.1,1,10 μM fMLP with fibrinogen (550 nM) for 15 minutes; n=3.
To determine maximal stimulation a potent stimulator of neutrophils, Cal, [11] was titrated out from 0-2.4 μM and specific proteinase fibrinogen-cleavage product measured.
To assess a more physiological stimulus, neutrophils were then incubated with N-formylmethionine-leucyl-phenylalanine (fMLP).

Test [1] concerns the target Porcine Pancreatic Elastase (Sus scrofa, UniProt P00772). The test can be described thus: enzyme kinetics: SlaaapN cleavage by PPE after incubation with AAT. The format is biochemical.
Setting [2] is: simple linear regression, control fixed at 100%.

Sequence of Porcine Pancreatic Elastase (P00772 27-266): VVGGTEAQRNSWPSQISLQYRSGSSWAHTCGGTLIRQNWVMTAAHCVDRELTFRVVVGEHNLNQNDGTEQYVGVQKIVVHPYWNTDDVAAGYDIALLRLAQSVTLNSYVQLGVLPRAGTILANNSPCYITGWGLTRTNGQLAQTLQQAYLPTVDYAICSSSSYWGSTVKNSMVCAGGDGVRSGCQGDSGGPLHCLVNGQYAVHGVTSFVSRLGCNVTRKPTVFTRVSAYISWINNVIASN
Description for neutrophil elastase: Neutrophils from healthy young volunteers were isolated using a method broadly described by Jepsen and Skottun [10].
Supernatant was obtained through centrifugation, and NE activity footprints were measured.

As to `Cc1c(-c2ccnn2C)cc(C(=O)NCc2ccc(S(C)(=O)=O)cn2)c(=O)n1-c1cccc(C(F)(F)F)c1` [alvelestat, 6-methyl-5-(1-methyl-1H-pyrazol-5-yl)-N-{[5-(methylsulfonyl)pyridin-2-yl]methyl}-2-oxo-1-[3-(trifluoromethyl)phenyl]-1,2-dihydropyridine-3-carboxamide], on NE (SlaaapN substrate, by extrapolation), the “molar ratio of inhibitor required to fully inhibit NE (inhibitor:NE, x:1)” value is 0.87. Besides, on NE (setting [2]), the “Slope, best-fit value (alvelestat:NE ratio vs NE enzymatic activity, FIG. 7)” value was −114.4 and the “X-intercept, best-fit value (alvelestat:NE ratio vs NE enzymatic activity, FIG. 7)” value is listed as 0.8742. On NE (titrated against elastase of known concentration and activity, Prism), the “alvelestat activity against NE” value is listed as 88%. For the same molecule, the “NE activity remaining, % of untreated (Aα-Val360)” value on neutrophil elastase (alvelestat 10 nM) was 60.1%. In addition, the “NE activity remaining, % of untreated (Aα-Val360)” value at neutrophil elastase (alvelestat 1000 nM) was found to be 27.4%. Further, at neutrophil elastase (read-out: inhibition (suppression) of NE activity), the inhibition at 1 µM was 72.6%.
In the case of `CSCC[C@H](NC=O)C(=O)N[C@@H](CC(C)C)C(=O)N[C@@H](Cc1ccccc1)C(=O)O` [fMLP, N-formyl-L-methionyl-L-leucyl-phenylalanine], the “increase of NE activity (Aα-Val360)” value in the test on neutrophils (0.1 μM fMLP, neutrophils 2.5 million/ml, fibrinogen 550 nM) was 11.4 nM; with neutrophils (10 μM fMLP, the values are: Aα-Val360 level (NE activity)), 35 nM. The “further increase of NE activity (Aα-Val360)” value in the test on neutrophils (1 μM fMLP, relative to 0.1 μM) is 7.3 nM.
Regarding “AAT: protective anti-proteinase alpha-1 antitrypsin, physiological inhibitor of neutrophil serine proteinases; purified batch from Athens Research & Technology”, the “molar concentration of AAT required to neutralise 1 Mol active PPE” value in test [1] (SlaaapN substrate) came out at 1.208 mol. The “functional AAT activity” value in test [1] (calculated from 1.208:1 AAT:PPE) is given as 83%.

The inhibition is the percentage by which the read-out fell short of the control.
